Measured values reported in US20240308960A1 (Sumitomo Pharma Co., Ltd., priority 2021, published 2024).

Target: T1, Human orexin receptor type 2 (Homo sapiens, UniProt O43614)
T1 sequence (O43614 1-444): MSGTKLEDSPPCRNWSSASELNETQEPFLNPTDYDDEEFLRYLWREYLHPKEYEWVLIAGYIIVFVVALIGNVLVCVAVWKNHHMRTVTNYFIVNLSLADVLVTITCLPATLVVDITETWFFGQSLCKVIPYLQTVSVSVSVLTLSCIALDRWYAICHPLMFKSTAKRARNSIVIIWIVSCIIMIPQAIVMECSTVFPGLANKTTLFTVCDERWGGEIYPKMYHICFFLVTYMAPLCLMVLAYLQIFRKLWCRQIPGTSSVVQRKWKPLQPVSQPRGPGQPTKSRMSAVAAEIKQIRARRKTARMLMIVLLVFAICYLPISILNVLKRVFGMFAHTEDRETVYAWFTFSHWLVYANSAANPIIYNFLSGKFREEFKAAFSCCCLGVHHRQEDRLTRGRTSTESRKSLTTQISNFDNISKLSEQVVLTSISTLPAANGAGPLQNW
Assay: Test Example 1: agonist activity for orexin receptor type 2 (aequorin luminescence, intracellular calcium mobilization)
Details: compound 10 μm; CHO cells transiently expressing human orexin receptor type 2 and apoaequorin; relative percentage of luminescence for the luminescence (100%) of Orexin A (100 μM)
Procedure: Human orexin receptor type 2 and apoaequorin were transiently expressed in CHO cells, and the agonist activity was evaluated based on intracellular calcium mobilization with ligand stimulation. The CHO cells transiently-expressed human orexin receptor type 2 and apoaequorin were seeded on a 384-well plate by 2,000 cells/well, and then incubated for 16-22 hours. After the plate was returned to room temperature, Coelenterazine hcp (final concentration: 1 μM) was added to the plate, and the plate was allowed to stand at room temperature for 2 hours. And then, Orexin A or each test compound was added to the plate, and the luminescence of the cells was measured with FDSS7000 (Hamamatsu Photonics K. K.), wherein Orexin A and each test compound were dissolved in DMSO (final concentration: 0.1%), and diluted with a buffer (Hanks, 20 mM HEPES, 0.1% BSA). The agonist activity of each test compound for orexin receptor type 2 was calculated as relative percentage of luminescence for the luminescence (100%) of Orexin A (100 μM).

SMILES | Agonist Activity (%)
Cc1nnc(C2(C)CCN(C(=O)Nc3ccccc3N3CCN(C(C)C)CC3)CC2)o1 [Example 165, 4-Methyl-4-(5-methyl-1,3,4-oxadiazol-2-yl)-N-{2-[4-(propan-2-yl)piperazin-1-yl]phenyl}piperidine-1-carboxamide] | 96
CC(C)N1CCC(c2cccc(F)c2NC(=O)N2CCC(C)(c3cc(C4CC4)on3)CC2)CC1 [Example 53, 4-(5-cyclopropyl-1,2-oxazol-3-yl)-N-{2-fluoro-6-[1-(propan-2-yl)piperidin-4-yl]phenyl}-4-methylpiperidine-1-carboxamide] | 140
Cc1ccc(C2CCN(C(=O)Nc3ccccc3N3CCN(C(C)C)CC3C)CC2)cc1 (racemic) [Example 30, Rac-4-(4-methylphenyl)-N-{2-[2-methyl-4-(propan-2-yl)piperazin-1-yl]phenyl}piperidine-1-carboxamide] | 36
CC1(c2cc(C3CC3)on2)CCN(C(=O)Nc2c(F)cccc2-c2ccc(C(F)(F)F)nc2)CC1.Cl [Example 71, 4-(5-cyclopropyl-1,2-oxazol-3-yl)-N-{2-fluoro-6-[6-(trifluoromethyl)pyridin-3-yl]phenyl}-4-mehylpiperidine-1-carboxamide hydrochloride] | 88
Cc1ccc(C2CCN(C(=O)Nc3c(F)cccc3N3C[C@H]4C[C@@H]3CN4C(C)C)CC2)cc1 [Example 151, N-{2-fluoro-6-[(1R,4R)-5-(propan-2-yl)-2,5-diazabicyclo[2.2.1]heptan-2-yl]phenyl}-4-(4-methylphenyl)piperidine-1-carboxamide] | 97
CCC1(c2noc(C3CC3)n2)CCN(C(=O)Nc2c(F)cccc2N2CCN(C(C)C)CC2)CC1 [Example 87, 4-(5-cyclopropyl-1,2,4-oxadiazol-3-yl)-4-ethyl-N-{2-fluoro-6-[4-(propan-2-yl)piperazin-1-yl]phenyl}piperidine-1-carboxamide] | 142
COc1cccc(N2CCN(C(C)C)CC2)c1NC(=O)N1CCC(C)(c2noc(C)n2)CC1 [Example 23, N-{2-methoxy-6-[4-(propan-2-yl)piperazin-1-yl]phenyl}-4-methyl-4-(5-methyl-1,2,4-oxadiazol-3-yl)piperidine-1-carboxamide] | 92
COc1cccc(N2CCN(C(C)C)CC2)c1NC(=O)N1CCC(c2ccc(C)cc2)CC1 [Example 8, N-{2-methoxy-6-[4-(propan-2-yl)piperazin-1-yl]phenyl}-4-(4-methylphenyl)piperidine-1-carboxamide] | 145
CC(C)N1CCN(c2cccc(Cl)c2NC(=O)N2CCC(C)(c3csc(C4CC4)n3)CC2)CC1 [Example 96, N-{2-chloro-6-[4-(propan-2-yl)piperazin-1-yl]phenyl}-4-(2-cyclopropyl-1,3-thiazol-4-yl)-4-methylpiperidine-1-carboxamide] | 160
CC1(c2noc(C3CC3)n2)CCN(C(=O)Nc2c(F)cccc2C2=CCOCC2)CC1 [Example 56, 4-(5-cyclopropyl-1,2,4-oxadiazol-3-yl)-N-[2-(3,6-dihydro-2H-pyran-4-yl)-6-fluorophenyl]-4-methylpiperidine-1-carboxamide] | 44
CC(CF)N1CCC(c2cccc(Cl)c2NC(=O)N2CCC(C)(c3noc(C4CC4)n3)CC2)CC1 (stereo not shown) [Example 143, N-{2-chloro-6-[1-(1-fluoropropan-2-yl)piperidin-4-yl]phenyl}-4-(5-cyclopropyl-1,2,4-oxadiazol-3-yl)-4-methylpiperidine-1-carboxamide] | 109
CC(C)c1ccc(-c2cccc(F)c2NC(=O)N2CCC(C)(c3noc(C4CC4)n3)CC2)cn1 [Example 60, 4-(5-cyclopropyl-1,2,4-oxadiazol-3-yl)-N-{2-fluoro-6-[6-(propan-2-yl)pyridin-3-yl]phenyl}-4-methylpiperidine-1-carboxamide] | 102
CC(C)[C@@H]1CO[C@H](c2cccc(Cl)c2NC(=O)N2CCC(C)(c3noc(C4CC4)n3)CC2)CN1 (racemic) [Example 168, Rac-N-{2-chloro-6-[(2R,5R)-5-(propan-2-yl)morpholin-2-yl]phenyl}-4-(5-cyclopropyl-1,2,4-oxadiazol-3-yl)-4-methylpiperidine-1-carboxamide] | 184
CC(CF)N1CC=C(c2cccc(Cl)c2NC(=O)N2CCC(C)(c3cc(C4CC4)on3)CC2)CC1 (stereo not shown) [Example 141, N-{2-chloro-6-[1-(1-fluoropropan-2-yl)-1,2,3,6-tetrahydropyridin-4-yl]phenyl}-4-(5-cyclopropyl-1,2-oxazol-3-yl)-4-methylpiperidine-1-carboxamide] | 121
COCCN1CCN(c2ccccc2NC(=O)N2CCC(c3ccc(C)cc3)CC2)CC1 [Example 125, N-{2-[4-(2-methoxyethyl)piperazin-1-yl]phenyl}-4-(4-methylphenyl)piperidine-1-carboxamide] | 141
Cc1ccc(C2CCN(C(=O)Nc3c(C)cccc3N3CCN(C(C)C)CC3)CC2)cc1 [Example 17, 4-(4-methylphenyl)-N-{2-methyl-6-[4-(propan-2-yl)piperazin-1-yl]phenyl}piperidine-1-carboxamide] | 133
CC(C)N1CCC(c2cccc(F)c2NC(=O)N2CCC(C)(c3noc(C4CC4)n3)CC2)CC1 [Example 43, 4-(5-cyclopropyl-1,2,4-oxadiazol-3-yl)-N-{2-fluoro-6-[1-(propan-2-yl)piperidin-4-yl]phenyl}-4-methylpiperidine-1-carboxamide] | 135
CC(C)N1CCN(c2cccc(F)c2NC(=S)N2CCC(C)(c3noc(C4CC4)n3)CC2)CC1 [Example 57, 4-(5-cyclopropyl-1,2,4-oxadiazol-3-yl)-N-{2-fluoro-6-[4-(propan-2-yl)piperazin-1-yl]phenyl}-4-methylpiperidine-1-carbothioamide] | 171
CC(C)N1CCC(c2cccc(F)c2NC(=O)N2CCC(C)(c3nc4ccccc4o3)CC2)CC1 [Example 49, 4-(1,3-benzoxazol-2-yl)-N-{2-fluoro-6-[1-(propan-2-yl)piperidin-4-yl]phenyl}-4-methylpiperidine-1-carboxamide] | 196
CC(C)N1CCN(c2ccccc2NC(=O)N2CCC(C)(c3nc(-c4ccccc4)no3)CC2)CC1 [Example 12, 4-methyl-4-(3-phenyl-1,2,4-oxadiazol-5-yl)-N-{2-[4-(propan-2-yl)piperazin-1-yl]phenyl}piperidine-1-carboxamide] | 123
COc1cccc(N2CCN(C(C)C)CC2)c1NC(=O)N1CCC(C)(c2noc(C(F)(F)F)n2)CC1 [Example 25, N-{2-methoxy-6-[4-(propan-2-yl)piperazin-1-yl]phenyl}-4-methyl-4-[5-(trifluoromethyl)-1,2,4-oxadiazol-3-yl]piperidine-1-carboxamide] | 136
CC(C)c1nc(C2(C)CCN(C(=O)Nc3ccccc3N3CCN(C(C)C)CC3)CC2)no1 [Example 19, 4-methyl-4-[5-(propan-2-yl)-1,2,4-oxadiazol-3-yl]-N-{2-[4-(propan-2-yl)piperazin-1-yl]phenyl}piperidine-1-carboxamide] | 133
